Source: paper PMC4501388 (European journal of medicinal chemistry, 2015)
“And” between values parts separate entries of the source, which are not always exact repeats. Equal values may be shown once. Blank lines part the entries; values can stand above or below the substance they belong to.

Columns and labels:
TK1 [1] = biological target: T1, TK1 (Homo sapiens, UniProt P04183); experiment: Phosphate transfer assay; format: biochemical; conditions: 100 μM nucleoside analogue and 100 μM ATP
T1 sequence (P04183 1-234): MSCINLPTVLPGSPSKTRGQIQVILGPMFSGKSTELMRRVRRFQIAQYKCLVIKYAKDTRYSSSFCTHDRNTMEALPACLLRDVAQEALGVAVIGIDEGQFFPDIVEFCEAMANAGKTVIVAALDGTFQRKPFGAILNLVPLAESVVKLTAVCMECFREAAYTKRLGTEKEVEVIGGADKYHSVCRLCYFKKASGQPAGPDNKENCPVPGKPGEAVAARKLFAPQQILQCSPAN

RG2 glioma cells = experiment: In vitro metabolomic HRMS study; format: cell-based, rat
[2] = test system: rats bearing intracerebral RG2 gliomas; experiment: In vivo biodistribution study, boron determination by ICP-OES; set-up: species or system rat
[3] = test system: TK1(+)- and TK1(−) L929 cells; conditions: cited from earlier work
[4] = Stability during storage in aqueous solutions; format: physicochemical
TK1 [5] = biological target: T1, TK1; experiment: Competitive TK1 inhibition studies; conditions: 0.5 μM dThd, 5 mM ATP, 0–250.00 μM nucleoside analogue
TK1 [6] = biological target: T1, TK1; experiment: Enzyme kinetic studies; format: biochemical; conditions: 1.95–500 μM nucleoside analogue and 100 μM ATP

rPR (phosphorylation rate relative to that of dThd) (TK1 [1]): 19.5 ± 5.3%
Substance: 3-({3-[4-(closo-1,7-Carboranyl)butyl]amino}propyl)thymidine [Compound 20]

Di- and triphosphate metabolites (RG2 glioma cells; RG2 cells, HRMS positive and negative ion mode): could not be detected
5′-Monophosphate metabolite formation (RG2 glioma cells; TK1(+) RG2 cells, 17.5 μM, 2 hours, HRMS): monophosphorylated
Boron concentration, Tumor ([2]; 100 μg boron i.c. by ALZET pump over 24 h, RG2 glioma, Fischer rats): 8.9 µg/g and 8.8 ± 2.9 µg/g
Ratio T/Bl (tumor/blood ratio) ([2]; tumor to blood boron ratio, i.c. over 24 h): 9.3
Ratio T/B ([2]; tumor to brain boron ratio, i.c. over 24 h): 4.3
Stability during storage [4]: stable
IC50 (TK1 [5]): 37.5 ± 6.3 µM
Km (TK1 [6]): 24.3 ± 2.1 µM
kcat (TK1 [6]): 5.1 s⁻¹
rkcat/Km (kcat/Km relative to that of 1) (TK1 [6]): 5.8%
rPR (phosphorylation rate relative to that of dThd) (TK1 [1]): 40.0% and 40.0 ± 11.2%
Substance: 3-[5-{2-(2,3-dihydroxyprop-1-yl)-o-carboran-1-yl}pentan-1-yl]thymidine [Compound 2]
Di- and triphosphorylation ([3]; TK1(+) L929 cells): did not seem to occur
Intracellular monophosphate metabolite formation ([3]; TK1(+) vs TK1(−) L929 cells, tritiated compound): production of tritiated 2-MP in TK1(+) L929 cells but not in their TK1(−) L929 counterparts

rPR (phosphorylation rate relative to that of dThd) (TK1 [1]): 44.4 ± 8.7%
Substance: 3-({2-[4-(closo-1,7-Carboranyl)butyl]amino}ethyl)thymidine [Compound 18]

rPR (phosphorylation rate relative to that of dThd) (TK1 [1]): ~ 30%
Substance: 3-{[3-(closo-1,7-Carboranyl)propyl]amino}thymidine [Compound 9]

rPR (phosphorylation rate relative to that of dThd) (TK1 [1]): 14.5 ± 4.8%
Substance: 3-({2-[3-(closo-1,7-carboranyl)propyl]amino}-2-oxoethyl)thymidine [Compound 29]

Stability during storage [4]: stable
IC50 (TK1 [5]): > 250 µM
Km (TK1 [6]): 39.8 ± 10.4 µM
kcat (TK1 [6]): 5.4 s⁻¹
rkcat/Km (kcat/Km relative to that of 1) (TK1 [6]): 3.7%
rPR (phosphorylation rate relative to that of dThd) (TK1 [1]): 38% and 38.0 ± 6.5%
Substance: 3-({4-[4-(closo-1,7-Carboranyl)butyl]amino}butyl)thymidine [Compound 22]

rPR (phosphorylation rate relative to that of dThd) (TK1 [1]): 24.5 ± 7.8%
Substance: 3-({2-[3-(closo-1,7-Carboranyl)propyl]amino}ethyl)thymidine [Compound 17]

rPR (phosphorylation rate relative to that of dThd) (TK1 [1]): 35.2 ± 5.3%
Substance: 3-({2-[2-(closo-1,7-Carboranyl)ethyl]amino}ethyl)thymidine [Compound 16]

rPR (phosphorylation rate relative to that of dThd) (TK1 [1]): 19.2 ± 4.5%
Substance: 3-({2-[2-(closo-1,7-Carboranyl)ethyl]amino}-2-oxoethyl)thymidine [Compound 28]

Stability during storage [4]: stable
IC50 (TK1 [5]): > 250 µM
Km (TK1 [6]): 80.1 ± 37.6 µM
kcat (TK1 [6]): 5.9 s⁻¹
rkcat/Km (kcat/Km relative to that of 1) (TK1 [6]): 2.0%
rPR (phosphorylation rate relative to that of dThd) (TK1 [1]): 45% and 45.2 ± 3.8%
Substance: 3-({4-[3-(closo-1,7-Carboranyl)propyl]amino}butyl)thymidine [Compound 21]

rPR (phosphorylation rate relative to that of dThd) (TK1 [1]): 18.8 ± 4.8%
Substance: 3-({3-[3-(closo-1,7-Carboranyl)propyl]amino}propyl)thymidine [Compound 19]

rPR (phosphorylation rate relative to that of dThd) (TK1 [1]): 12.3 ± 8.7%
Substance: 3-({2-[4-(closo-1,7-carboranyl)butyl]amino}-2-oxoethyl)thymidine [Compound 30]
